Experimental data taken from PubChem BioAssay (NCI).
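Abbreviation: GI50, concentration required for 50% inhibition of growth. TGI is the concentration that stops growth completely.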

How the values were obtained:
Assay in all cases: NCI-60 cell line screen, 384-well format
SW-620 colon = system: SW-620 colon
NCI-H522 lung = system: NCI-H522 lung
HT29 colon = system: HT29 colon
RXF 393 renal = system: RXF 393 renal
LOX IMVI melanoma = system: LOX IMVI melanoma
SN12C renal = system: SN12C renal
NCI/ADR-RES ovarian = system: NCI/ADR-RES ovarian
EKVX NSCLC = system: EKVX NSCLC
SR leukemia = system: SR leukemia
SF-539 CNS = system: SF-539 CNS
HCT-15 colon = system: HCT-15 colon
OVCAR-4 ovarian = system: OVCAR-4 ovarian
U251 glioblastoma = system: U251 glioblastoma

CCN(CC)CCNC(=O)c1c(C)[nH]c(/C=C2\C(=O)Nc3ccc(F)cc32)c1C
GI50 (SW-620 colon): 1700 nM | TGI (SW-620 colon): 4290 nM | GI50 (NCI-H522 lung): 2220 nM | TGI (NCI-H522 lung): 6490 nM | GI50 (HT29 colon): 1480 nM | TGI (HT29 colon): 2850 nM | GI50 (RXF 393 renal): 1880 nM | TGI (RXF 393 renal): 3530 nM | GI50 (LOX IMVI melanoma): 1390 nM | TGI (LOX IMVI melanoma): 2710 nM | GI50 (SN12C renal): 931 nM | TGI (SN12C renal): 10400 nM | GI50 (NCI/ADR-RES ovarian): 2560 nM | TGI (NCI/ADR-RES ovarian): 6160 nM | GI50 (EKVX NSCLC): 3120 nM | TGI (EKVX NSCLC): 9470 nM | GI50 (SR leukemia): 1810 nM | TGI (SR leukemia): 3240 nM | GI50 (SF-539 CNS): 1280 nM | TGI (SF-539 CNS): 2610 nM | GI50 (HCT-15 colon): 1190 nM | TGI (HCT-15 colon): 3600 nM | GI50 (OVCAR-4 ovarian): 3930 nM | TGI (OVCAR-4 ovarian): 8440 nM | GI50 (U251 glioblastoma): 2090 nM | TGI (U251 glioblastoma): 5090 nM
